T1: AaPFK (Aedes aegypti phosphofructokinase) (Aedes aegypti, UniProt A0A903U8I9)
T1 construct: gene 5568472; native enzyme in supernatant of whole-insect homogenate, not purified
T1 sequence (A0A903U8I9 1-790): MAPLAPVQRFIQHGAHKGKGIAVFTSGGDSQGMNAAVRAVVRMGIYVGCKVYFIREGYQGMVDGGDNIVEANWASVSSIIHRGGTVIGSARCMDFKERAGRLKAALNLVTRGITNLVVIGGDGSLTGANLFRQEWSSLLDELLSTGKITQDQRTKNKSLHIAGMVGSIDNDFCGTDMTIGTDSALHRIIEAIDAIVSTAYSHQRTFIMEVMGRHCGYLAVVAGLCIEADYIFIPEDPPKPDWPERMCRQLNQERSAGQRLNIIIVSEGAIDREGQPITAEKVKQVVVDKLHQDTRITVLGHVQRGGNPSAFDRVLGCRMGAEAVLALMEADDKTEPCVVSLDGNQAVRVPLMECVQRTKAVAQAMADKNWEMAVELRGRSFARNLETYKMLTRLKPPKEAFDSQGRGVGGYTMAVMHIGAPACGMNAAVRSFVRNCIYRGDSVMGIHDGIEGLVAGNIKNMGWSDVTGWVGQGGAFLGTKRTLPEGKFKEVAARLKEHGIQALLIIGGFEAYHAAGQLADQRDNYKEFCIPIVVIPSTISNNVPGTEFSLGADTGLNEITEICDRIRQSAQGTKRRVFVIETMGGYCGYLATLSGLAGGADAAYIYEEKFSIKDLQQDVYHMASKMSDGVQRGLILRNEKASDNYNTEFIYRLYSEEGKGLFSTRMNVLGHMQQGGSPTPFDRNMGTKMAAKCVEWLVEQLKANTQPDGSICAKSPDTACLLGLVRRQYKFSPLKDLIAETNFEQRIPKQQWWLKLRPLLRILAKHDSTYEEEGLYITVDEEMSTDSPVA

B1: AaPFK (Aedes aegypti phosphofructokinase) (Aedes aegypti) (protein)
chain: T1 sequence (A0A903U8I9 1-790)

Columns and labels:
[1] = molecular target: T1, AaPFK (Aedes aegypti phosphofructokinase); test: coupled NADH oxidation assay (aldolase/TPI/alpha-GPDH), […] nm; format: biochemical; settings: substrate inhibition, allosteric, second site; 1 mM F6P, 5 mM MgCl2, pH 7.4; crude extract; unit not printed (ATP range given in mM)
[2] = substrate: Nc1ncnc2c1ncn2[C@@H]1O[C@H](COP(=O)(O)OP(=O)(O)OP(=O)(O)O)[C@@H](O)[C@H]1O; test: cells, lysate or membranes; settings: 1 mM F6P, 5 mM MgCl2, pH 7.4 (Fig. 1 legend: pH 8.0); crude extract; Table 1 labels this number Kprime = K0.5^h with h 0.741

Molecule | ATP / Activity [U (mg protein) ^-1] [1] | K0.5 [2] [mM]
Nc1ncnc2c1ncn2[C@@H]1O[C@H](COP(=O)(O)OP(=O)(O)OP(=O)(O)O)[C@@H](O)[C@H]1O [ATP] | 4.536 ± 0.178 | –
B1 | – | 0.43 ± 0.10
